Eight cell lines from the supplement of paper PMC10307832 can be followed below.

Assay in all cases: relative viability (nuclei count vs DMSO), 5 days (fraction); higher = more cells survive
Compound in experiment [1]: Cc1ccc(C(=O)Nc2ccc(CN3CCN(C)CC3)c(C(F)(F)F)c2)cc1C#Cc1cnc2cccnn12 [Ponatinib] + Nc1ncn([C@H]2C[C@H](O)[C@@H](CO)O2)c(=O)n1 [Decitabine] (partner 2 µM)
An outline of the steps: (§1)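 Medians of duplicate plates are given as relative viability. That measure is the nuclei count in treated wells divided by the count in vehicle wells. Counts were taken on 4× images of lung cancer cell lines in 1536-well plates, 5 days after pin-tool dosing the day after seeding with one drug alone or a fixed anchor-drug dose plus five library-drug doses (not always all listed) in √10 steps.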

Compound in experiment [2]: Cc1ccc(Nc2nccc(N(C)c3ccc4c(C)n(C)nc4c3)n2)cc1S(N)(=O)=O [Pazopanib] + CS(=O)(=O)CCNCc1ccc(-c2ccc3ncnc(Nc4ccc(OCc5cccc(F)c5)c(Cl)c4)c3c2)o1 [Lapatinib] (partner 2 µM)
An outline of the steps:
as §1

Compound in experiment [3]: Cc1ccc(C(=O)Nc2ccc(CN3CCN(C)CC3)c(C(F)(F)F)c2)cc1C#Cc1cnc2cccnn12 [Ponatinib] + Cc1nc(NC(=O)N2CCC[C@H]2C(N)=O)sc1-c1ccnc(C(C)(C)C(F)(F)F)c1 [Alpelisib] (partner 2 µM)
Summed up:
as §1

Compound in experiment [4]: Cc1ccc(Nc2nccc(N(C)c3ccc4c(C)n(C)nc4c3)n2)cc1S(N)(=O)=O [Pazopanib] + Cc1nc(NC(=O)N2CCC[C@H]2C(N)=O)sc1-c1ccnc(C(C)(C)C(F)(F)F)c1 [Alpelisib] (partner 2 µM)
Summed up:
as §1

For HCC-15, the relative viability was determined as 0.666 in experiment [1] (first compound 0.002 µM); 0.671 in experiment [1] (first compound 0.006325 µM); 0.744 in experiment [1] (first compound 0.06325 µM); 0.634 in experiment [1] (first compound 0.2 µM); 0.841 in experiment [2] (first compound 0.01 µM); 0.789 in experiment [2] (first compound 0.03162 µM). Moreover, the relative viability in experiment [2] (first compound 0.1 µM) turned out to be 0.907; in experiment [2] (first compound 0.3162 µM), 0.89; in experiment [2] (first compound 1 µM), 1; in experiment [3] (first compound 0.002 µM) it was 0.82; in experiment [3] (first compound 0.006325 µM) it was 0.906; in experiment [3] (first compound 0.06325 µM), 0.988. In addition, the relative viability worked out at 0.805 in experiment [3] (first compound 0.2 µM); 0.788 in experiment [4] (first compound 0.01 µM); 0.931 in experiment [4] (first compound 0.03162 µM); 0.885 in experiment [4] (first compound 0.1 µM); 0.909 in experiment [4] (first compound 0.3162 µM); 0.986 in experiment [4] (first compound 1 µM).

HCC-44: the relative viability in experiment [1] (first compound 0.002 µM) is 0.936; in experiment [1] (first compound 0.006325 µM) it was 0.976; in experiment [1] (first compound 0.06325 µM), 0.898; in experiment [1] (first compound 0.2 µM), 0.884; in experiment [2] (first compound 0.01 µM), 0.999; in experiment [2] (first compound 0.03162 µM) it was 1.01. Also, the relative viability was determined as 0.962 in experiment [2] (first compound 0.1 µM); 1.01 in experiment [2] (first compound 0.3162 µM); 1.03 in experiment [2] (first compound 1 µM); 0.802 in experiment [3] (first compound 0.002 µM); 0.897 in experiment [3] (first compound 0.006325 µM); 0.92 in experiment [3] (first compound 0.06325 µM). Besides, the relative viability in experiment [3] (first compound 0.2 µM) amounted to 0.794; in experiment [4] (first compound 0.01 µM), 0.664; in experiment [4] (first compound 0.03162 µM), 0.806; in experiment [4] (first compound 0.1 µM), 0.766; in experiment [4] (first compound 0.3162 µM), 0.74; in experiment [4] (first compound 1 µM), 0.793.

For the cell line HCC-78, the relative viability in experiment [1] (first compound 0.002 µM) turned out to be 0.653; in experiment [1] (first compound 0.006325 µM), 0.757; in experiment [1] (first compound 0.06325 µM), 0.668; in experiment [1] (first compound 0.2 µM), 0.577; in experiment [2] (first compound 0.01 µM), 0.361; in experiment [2] (first compound 0.03162 µM), 0.658. Besides, the relative viability in experiment [2] (first compound 0.1 µM) was 0.458; in experiment [2] (first compound 0.3162 µM) it was 0.622; in experiment [2] (first compound 1 µM), 0.924; in experiment [3] (first compound 0.002 µM), 0.321; in experiment [3] (first compound 0.006325 µM), 0.301; in experiment [3] (first compound 0.06325 µM) it was 0.408. The relative viability amounted to 0.323 in experiment [3] (first compound 0.2 µM); 0.284 in experiment [4] (first compound 0.01 µM); 0.406 in experiment [4] (first compound 0.03162 µM); 0.3 in experiment [4] (first compound 0.1 µM); 0.35 in experiment [4] (first compound 0.3162 µM); 0.388 in experiment [4] (first compound 1 µM).

Take HCC-366: the relative viability turned out to be 0.336 in experiment [1] (first compound 0.002 µM); 0.317 in experiment [1] (first compound 0.006325 µM); 0.387 in experiment [1] (first compound 0.06325 µM); 0.37 in experiment [1] (first compound 0.2 µM); 1.09 in experiment [2] (first compound 0.01 µM); 1.03 in experiment [2] (first compound 0.03162 µM). Besides, the relative viability turned out to be 1.09 in experiment [2] (first compound 0.1 µM); 1.15 in experiment [2] (first compound 0.3162 µM); 1.03 in experiment [2] (first compound 1 µM); 0.375 in experiment [3] (first compound 0.002 µM); 0.43 in experiment [3] (first compound 0.006325 µM); 0.69 in experiment [3] (first compound 0.06325 µM). In addition, the relative viability in experiment [3] (first compound 0.2 µM) amounted to 0.376; in experiment [4] (first compound 0.01 µM) it was 0.33; in experiment [4] (first compound 0.03162 µM), 0.37; in experiment [4] (first compound 0.1 µM), 0.54; in experiment [4] (first compound 0.3162 µM), 0.444; in experiment [4] (first compound 1 µM) it was 0.454.

Regarding HCC-827, the relative viability was determined as 0.327 in experiment [1] (first compound 0.002 µM); 0.385 in experiment [1] (first compound 0.006325 µM); 0.338 in experiment [1] (first compound 0.06325 µM); 0.326 in experiment [1] (first compound 0.2 µM); 0.169 in experiment [2] (first compound 0.01 µM); 0.177 in experiment [2] (first compound 0.03162 µM). Besides, the relative viability in experiment [2] (first compound 0.1 µM) was 0.122; in experiment [2] (first compound 0.3162 µM), 0.181; in experiment [2] (first compound 1 µM), 0.191; in experiment [3] (first compound 0.002 µM) it was 1.01; in experiment [3] (first compound 0.006325 µM), 0.987; in experiment [3] (first compound 0.06325 µM), 1.01. Further, the relative viability in experiment [3] (first compound 0.2 µM) came to 1.01; in experiment [4] (first compound 0.01 µM), 0.949; in experiment [4] (first compound 0.03162 µM), 0.943; in experiment [4] (first compound 0.1 µM), 1.02; in experiment [4] (first compound 0.3162 µM) it was 0.944; in experiment [4] (first compound 1 µM), 1.01.

Consider HOP-62, for which the relative viability worked out at 0.213 in experiment [1] (first compound 0.002 µM); 0.168 in experiment [1] (first compound 0.006325 µM); 0.21 in experiment [1] (first compound 0.06325 µM); 0.183 in experiment [1] (first compound 0.2 µM); 1.04 in experiment [2] (first compound 0.01 µM); 1.01 in experiment [2] (first compound 0.03162 µM). Besides, the relative viability is 0.99 in experiment [2] (first compound 0.3162 µM); 1.04 in experiment [2] (first compound 1 µM); 0.782 in experiment [3] (first compound 0.002 µM); 0.871 in experiment [3] (first compound 0.006325 µM); 0.652 in experiment [3] (first compound 0.06325 µM); 0.718 in experiment [3] (first compound 0.2 µM). Further, the relative viability was determined as 0.68 in experiment [4] (first compound 0.01 µM), 1 in experiment [4] (first compound 0.03162 µM), 1.23 in experiment [4] (first compound 0.3162 µM) and 1.07 in experiment [4] (first compound 1 µM).

Take IA-LM: the relative viability in experiment [2] (first compound 0.01 µM) turned out to be 0.703; in experiment [2] (first compound 0.1 µM), 0.944; in experiment [2] (first compound 0.3162 µM), 0.809; in experiment [2] (first compound 1 µM), 0.52; in experiment [3] (first compound 0.002 µM) it was 0.756; in experiment [3] (first compound 0.006325 µM), 0.657. The relative viability amounted to 0.828 in experiment [3] (first compound 0.06325 µM); 0.722 in experiment [3] (first compound 0.2 µM); 0.665 in experiment [4] (first compound 0.01 µM); 0.856 in experiment [4] (first compound 0.03162 µM); 0.876 in experiment [4] (first compound 0.1 µM); 0.669 in experiment [4] (first compound 0.3162 µM). Also, the relative viability in experiment [4] (first compound 1 µM) is 0.509.

LC-2-ad: the relative viability in experiment [1] (first compound 0.002 µM) worked out at 0.738; in experiment [1] (first compound 0.006325 µM), 0.684; in experiment [1] (first compound 0.06325 µM), 0.696; in experiment [1] (first compound 0.2 µM), 0.582; in experiment [2] (first compound 0.01 µM), 1.01; in experiment [2] (first compound 0.03162 µM), 0.954. The relative viability was determined as 0.999 in experiment [2] (first compound 0.1 µM); 0.979 in experiment [2] (first compound 0.3162 µM); 1.12 in experiment [2] (first compound 1 µM); 0.832 in experiment [3] (first compound 0.002 µM); 0.792 in experiment [3] (first compound 0.006325 µM); 0.648 in experiment [3] (first compound 0.06325 µM). Further, the relative viability in experiment [3] (first compound 0.2 µM) was found to be 0.552; in experiment [4] (first compound 0.01 µM) it was 0.844; in experiment [4] (first compound 0.03162 µM), 0.884; in experiment [4] (first compound 0.1 µM), 0.916; in experiment [4] (first compound 0.3162 µM), 0.866; in experiment [4] (first compound 1 µM), 0.891.
